Test results from patent publication US9085570B2, “Substituted benzamides and their uses” (The Board of Trustees of the Leland Stanford Junior …, priority 2010, dated 2015).

How the values were obtained:
RCC4 = assay: XTT cell viability assay in RCC4 cells (VHL-deficient renal carcinoma); type: cell-based; conditions: four days drug exposure
Protocol: (§1) Cell Culture. RCC4 parental and RCC4 with VHL-reintroduced (RCC4/VHL), SN12C and SN12C-CSCG-VHL shRNA were maintained in DMEM supplemented with 10% FCS.
(§2) Cell Viability Assays. For 2,3-bis[2-methoxy-4-nitro-5-sulfophenyl]-2H-tetrazolium-5-carboxanilide (XTT) assays, five thousand cells were plated in 96-well plates. The next day, vehicle (DMSO) or drug was added by serial dilution. Four days later, media were aspirated, XTT solution (0.3 mg/ml of XTT (Sigma), […] N-methyl dibenxopyrazine methyl sulfate (Simga) in phenol red-free media) was added, and the plates were incubated at 37° C. for 1-2 hours. Metabolism of XTT was quantified by measuring the absorbance at 450 nm IC50s were calculated using linear interpolation. For clonogenic survival assays, three hundred cells were plated per 60 mm tissue culture dish. The cells were allowed to attach overnight and then treated with vehicle or drug for 14 days. Colonies were fixed and stained with crystal violet (0.1% crystal violet in 95% ethanol). All conditions were measured in triplicate and each experiment was done in duplicate or triplicate. To determine necrosis, cells were treated with drug for a given time point. Media and cells were collected, centrifugated, and resuspended in 0.4% trypan blue (Invitrogen). Live and dead cells were counted on a hematocytometer.
(§3) The designation A reflects an IC50 of <1 nM; B reflects an IC50 ranging from 1 to 20 nM; and C is an IC50 of >20 nM. The designation “a” reflects a ratio of RCC4/RCC-VHL+ranging from 1 to ≦10; “b” reflects from 10 to ≦100; “c” reflects a ratio of >100. Compounds I-29 have an IC50 value of ≦10 μM when tested in the above assay.

[1] = system: RCC4 with VHL-reintroduced (RCC4/VHL); assay: XTT cell viability assay in RCC4/VHL cells, selectivity ratio versus RCC4; type: cell-based; conditions: Ratio = IC50RCC4/VHL/IC50RCC4
Protocol: as §1, §2, §3

Row | IC50 (RCC4; Homo sapiens, 96 h) [nM] | SMILES | Ratio (IC50 RCC4 Proficient VHL)/ IC50 RCC4 Deficient VHL) [1] | IC50 (RCC4) [nM]
1 | > 20 | Cc1oc(-c2ccc(C(=O)NCc3cccnc3)cc2)nc1CS(=O)(=O)C1CCNCC1 [Example 39, 4-(5-Methyl-4-((piperidin-4-ylsulfonyl)methyl)oxazol-2-yl)-N-(pyridin-3-ylmethyl)benzamide] | b (from 10 to ≦100) | –
2 | < 1 | Cc1oc(-c2ccc(C(=O)NCc3cccnc3)cc2)nc1CS(=O)(=O)C1CCN(C)CC1 [Example 40, 4-(5-Methyl-4-((1-methylpiperidin-4-ylsulfonyl)methyl)oxazol-2-yl)-N-(pyridin-3-ylmethyl)benzamide] | b (from 10 to ≦100) | –
3 | – | Cc1oc(-c2ccc(C(=O)NCc3cccnc3)cc2)nc1CS(=O)(=O)[C@H]1CC[C@@H](N)CC1 [Example 41, 4-(4-(((1s,4s)-4-aminocyclohexylsulfonyl)methyl)-5-methyloxazol-2-yl)-N-(pyridin-3-ylmethyl)benzamide] | b (from 10 to ≦100) | > 20
4 | < 1 | Cc1oc(-c2ccc(C(=O)NCc3cccnc3)cc2)nc1CS(=O)(=O)[C@H]1CC[C@@H](N2CCCC2)CC1 [Example 42, 4-[5-methyl-4-([[4-(pyrrolidin-1-yl)cyclohexane]sulfonyl]methyl)-1,3-oxazol-2-yl]-N-(pyridin-3-ylmethyl)benzamide] | b (from 10 to ≦100) | –
5 | < 1 | Cc1oc(-c2ccc(C(=O)NCc3cccnc3)cc2)nc1CS(=O)(=O)[C@H]1CC[C@@H](N2CCCCC2)CC1 [Example 43, 4-[5-Methyl-4-([[4-(piperidin-1-yl)cyclohexane]sulfonyl]methyl)-1,3-oxazol-2-yl]-N-(pyridin-3-ylmethyl)benzamide] | b (from 10 to ≦100) | –
6 | > 20 | Cc1oc(-c2ccc(C(=O)NCc3cccnc3)cc2)nc1CS(=O)(=O)[C@H]1CC[C@H](N)CC1 [Example 44, 4-(4-[[(4-Aminocyclohexane)sulfonyl]methyl]-5-methyl-1,3-oxazol-2-yl)-N-(pyridin-3-ylmethyl)benzamide] | b (from 10 to ≦100) | –
7 | 1 to 20 | Cc1oc(-c2ccc(C(=O)NCc3cccnc3)cc2)nc1CS(=O)(=O)[C@H]1CC[C@H](N2CCCC2)CC1 [Example 45, 4-[5-Methyl-4-([[4-(pyrrolidin-1-yl)cyclohexane]sulfonyl]methyl)-1,3-oxazol-2-yl]-N-(pyridin-3-ylmethyl)benzamide] | b (from 10 to ≦100) | –
8 | < 1 | Cc1oc(-c2ccc(C(=O)NCc3cccnc3)cc2)nc1CS(=O)(=O)[C@H]1CC[C@H](N2CCCCC2)CC1 [Example 46, 4-[5-Methyl-4-([[4-(piperidin-1-yl)cyclohexane]sulfonyl]methyl)-1,3-oxazol-2-yl]-N-(pyridin-3-ylmethyl)benzamide] | b (from 10 to ≦100) | –
9 | > 20 | Cc1oc(-c2ccc(C(=O)NCc3cccnc3)cc2)nc1CS(=O)(=O)[C@H]1CC[C@H](N)C1 [Example 47, 4-[4-([[(1S,3S)-3-Aminocyclopentane]sulfonyl]methyl)-5-methyl-1,3-oxazol-2-yl]-N-(pyridin-3-ylmethyl)benzamide] | b (from 10 to ≦100) | –
10 | < 1 | Cc1oc(-c2ccc(C(=O)NCc3cccnc3)cc2)nc1CS(=O)(=O)[C@H]1CC[C@H](N2CCCC2)C1 [Example 48, 4-[5-Methyl-4-([[(1S,3S)-3-(pyrrolidin-1-yl)cyclopentane]sulfonyl]methyl)-1,3-oxazol-2-yl]-N-(pyridin-3-ylmethyl)benzamide] | b (from 10 to ≦100) | –
11 | – | Cc1oc(-c2ccc(C(=O)NCc3cccnc3)cc2)nc1CS(=O)(=O)[C@H]1CC[C@H](N2CCCCC2)C1 [Example 49, 4-[5-Methyl-4-([[(1S,3S)-3-(piperidin-1-yl)cyclopentane]sulfonyl]methyl)-1,3-oxazol-2-yl]-N-(pyridin-3-ylmethyl)benzamide] | b (from 10 to ≦100) | < 1
